Patent publication US20250171447A1, “ADENOSINE RECEPTOR ANTAGONISTS, PHARMACEUTICAL COMPOSITIONS AND THEIR USE THEREOF” (Merck Sharp & Dohme LLC, priority 2022, published 2025)

Legend:
[1] = target: human A2B adenosine receptor (Homo sapiens (Human), UniProt P29275); experiment: A2B binding affinity radioligand filtration binding assay; settings: membranes from HEK293 cells expressing human A2B; tritiated proprietary A2B antagonist
[2] = target: human A2A adenosine receptor (Homo sapiens (Human), UniProt P29274); experiment: A2A receptor affinity binding assay (radioligand filtration binding or SPA, [3H]SCH58261); settings: membranes from HEK293 or CHO cells expressing human A2A; Method (A) filtration or Method (B) SPA
Sequence of human A2A adenosine receptor (P29274 whole entry): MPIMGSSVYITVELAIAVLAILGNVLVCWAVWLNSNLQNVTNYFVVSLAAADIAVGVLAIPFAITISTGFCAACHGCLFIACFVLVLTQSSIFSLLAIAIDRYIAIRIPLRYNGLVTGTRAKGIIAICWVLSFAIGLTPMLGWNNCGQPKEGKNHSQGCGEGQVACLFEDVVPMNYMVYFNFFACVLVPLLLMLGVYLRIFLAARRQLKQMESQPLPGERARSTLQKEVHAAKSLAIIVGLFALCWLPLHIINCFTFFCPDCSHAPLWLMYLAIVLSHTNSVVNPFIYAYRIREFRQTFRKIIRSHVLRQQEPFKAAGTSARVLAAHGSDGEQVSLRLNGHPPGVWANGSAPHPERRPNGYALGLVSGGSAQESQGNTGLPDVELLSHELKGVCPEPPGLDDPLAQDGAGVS

Sequence of human A2B adenosine receptor (P29275 whole entry): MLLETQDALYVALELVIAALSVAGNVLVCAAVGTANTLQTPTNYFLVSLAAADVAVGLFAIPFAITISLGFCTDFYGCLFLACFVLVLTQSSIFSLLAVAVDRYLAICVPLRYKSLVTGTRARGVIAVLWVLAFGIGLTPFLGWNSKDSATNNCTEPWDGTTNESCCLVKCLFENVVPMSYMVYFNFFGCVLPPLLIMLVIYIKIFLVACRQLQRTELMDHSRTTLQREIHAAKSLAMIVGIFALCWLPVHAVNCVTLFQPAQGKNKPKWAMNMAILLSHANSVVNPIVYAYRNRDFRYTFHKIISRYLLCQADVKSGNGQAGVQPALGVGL

SMILES | IC50 [1] | IC50 [2]
COc1cccc2c1nc(N)n1nc(C3CC3c3ccc4c(c3)NCCO4)nc21 (stereo not shown) [Ex-24, 2-[2-(3,4-dihydro-2H-1,4-benzoxazin-6-yl)cyclopropy1]-7-methoxy[1,2,4]triazolo [1,5-c]quinazolin-5-amine] | 42.6 nM | 9 nM
COc1cccc2c1nc(N)n1nc(C3CC3c3ccccc3[C@H](C)O)nc21 (stereo partly drawn) [Ex-15, (1S)-1-{2-[2-(5-amino-7-methoxy[1,2,4]triazolo [1,5-c]quinazolin-2-yl)cyclopropyl]phenyl} ethan-1-ol] | 1840 nM | 3.4 nM
COc1cccc2c1nc(N)n1nc(C3CC3c3cccc4c3CNC4=O)nc21 (stereo not shown) [Ex-20, 4-[2-(5-amino-7-methoxy[1,2,4]triazolo [1,5-c]quinazolin-2-yl)cyclopropyl]-2,3-dihydro-1H-isoindol-1-one] | 395 nM | 6.5 nM
COc1cccc2c1nc(N)n1nc(C3CC3c3ccc(C(N)=O)c(F)c3)nc21 (stereo not shown) [Ex-17, 4-[2-(5-amino-7-methoxy[1,2,4]triazolo [1,5-c]quinazolin-2-yl)cyclopropyl]-2-fluorobenzamide] | 40.7 nM | 4.1 nM
COc1cccc2c1nc(N)n1nc(C3CC3c3ccc(C)nc3)nc21 (stereo not shown) [Ex-11, 7-methoxy-2-[2-(6-methylpyridin-3-yl)cyclopropyl][1,2,4] triazolo[1,5-c] quinazolin-5-amine] | 78.4 nM | 3.1 nM
COc1cccc2c1nc(N)n1nc(C3CC3c3ccc4c(c3)C(=O)NC4)nc21 (stereo not shown) [Ex-6, 6-[2-(5-amino-7-methoxy[1,2,4]triazolo [1,5-c]quinazolin-2-yl)cyclopropyl]-2,3-dihydro-1H-isoindol-1-one] | 13.2 nM | 0.9 nM
COc1cccc2c1nc(N)n1nc(C3CC3c3ccccc3[C@@H](C)O)nc21 (stereo partly drawn) [Ex-12, (1R)-1-{2-[2-(5-amino-7-methoxy[1,2,4]triazolo [1,5-c]quinazolin-2-yl)cyclopropyl]phenyl} ethan-1-ol] | 281 nM | 3.2 nM
COc1cccc2c1nc(N)n1nc(C3CC3c3cnc(NCCO)nc3)nc21 (stereo not shown) [Ex-22, 2-({5-[2-(5-amino-7-methoxy[1,2,4]triazolo [1,5-c]quinazolin-2-yl)cyclopropyl]pyrimidin-2-yl}amino)ethan-1-ol] | 133 nM | 7.7 nM
CNC(=O)c1ccc(C2CC2c2nc3c4cccc(OC)c4nc(N)n3n2)cc1 (stereo not shown) [Ex-19, 4-[2-(5-amino-7-methoxy[1,2,4]triazolo [1,5-c]quinazolin-2-yl)cyclopropyl]-N-methylbenzamide] | 32.9 nM | 5.8 nM
COc1cccc2c1nc(N)n1nc(C3CC3c3ccc4nnc(C)n4c3)nc21 (stereo not shown) [Ex-9, 7-methoxy-2-[2-(3-methyl[1,2,4]triazolo [4,3-a]pyridin-6-yl)cyclopropyl][1,2,4] triazolo[1,5-c] quinazolin-5-amine] | 337 nM | 2 nM
COc1cccc2c1nc(N)n1nc(C3CC3C)nc21 (stereo not shown) [Ex-10, 7-methoxy-2-[2-methylcyclopropyl] [1,2,4]triazolo[1,5-c] quinazolin-5-amine] | 45.4 nM | 2.6 nM
COc1cccc2c1nc(N)n1nc(C3CC3c3cccc(NC(C)=O)c3)nc21 (stereo not shown) [Ex-5, N-{3-[2-(5-amino-7-methoxy[1,2,4]triazolo [1,5-c]quinazolin-2-yl)cyclopropyl]phenyl} acetamide] | 15.4 nM | 0.5 nM
COc1cccc2c1nc(N)n1nc(C3CC3c3ccc4c(c3)CNC4=O)nc21 (stereo not shown) [Ex-8, 5-[2-(5-amino-7-methoxy[1,2,4]triazolo [1,5-c]quinazolin-2-yl)cyclopropyl]-2,3-dihydro-1H-isoindol-1-one] | 31 nM | 1.5 nM
CCn1cc(C2CC2c2nc3c4cccc(OC)c4nc(N)n3n2)cn1 (stereo not shown) [Ex-14, 2-[2-(1-ethyl-1H-pyrazol-4-yl)cyclopropyl]-7-methoxy[1,2,4]triazolo [1,5-c]quinazolin-5-amine] | 56.1 nM | 3.3 nM
COc1cccc2c1nc(N)n1nc(C3CC3c3ccc4cnn(C)c4c3)nc21 (stereo not shown) [Ex-21, 7-methoxy-2-[2-(1-methyl-1H-indazol-6-yl)cyclopropyl][1,2,4] triazolo[1,5-c] quinazolin-5-amine] | 104 nM | 6.9 nM
COc1cccc2c1nc(N)n1nc(C3CC3c3cncc(F)c3)nc21 (stereo not shown) [Ex-18, 2-[2-(5-fluoropyridin-3-yl)cyclopropyl]-7-methoxy[1,2,4]triazolo [1,5-c]quinazolin-5-amine] | 252 nM | 5.5 nM

The remaining lines, values ahead:

IC50 [1] | IC50 [2] | SMILES
96.3 nM | 9.9 nM | COc1cccc2c1nc(N)n1nc(C3CC3c3c[nH]nc3C(F)(F)F)nc21 (stereo not shown) [Ex-25, 7-methoxy-2-{2-[3-(trifluoromethyl)-1H-pyrazol-4-yl]cyclopropyl} [1,2,4] triazolo[1,5-c] quinazolin-5-amine]
906 nM | 43 nM | COc1cccc2c1nc(N)n1nc(C3(CO)CC3)nc21 [Ex-30, [1-(5-amino-7-methoxy[1,2,4]triazolo [1,5-c]quinazolin-2-yl)cyclopropyl]methanol]
718 nM | 12.3 nM | COc1cccc2c1nc(N)n1nc(C3CC3c3cnc(C)nc3)nc21 (stereo not shown) [Ex-26, 7-methoxy-2-[2-(2-methylpyrimidin-5-yl)cyclopropyl][1,2,4] triazolo[1,5-c] quinazolin-5-amine]
7.6 nM | 1.4 nM | COc1cccc2c1nc(N)n1nc(C3CC3Cc3ccc(F)cc3)nc21 (stereo not shown) [Ex-40, 2-(2-(4-fluorobenzyl)cyclopropyl)-7-methoxy-[1,2,4]triazolo[1,5-c]quinazolin-5-amine]
116 nM | 2.2 nM | COc1cccc2c1nc(N)n1nc([C@H]3C[C@H](c4ccccc4)C3)nc21 [Ex-136, 7-methoxy-2-((1r,3r)-3-phenylcyclobutyl)-[1,2,4]triazolo[1,5-c]quinazolin-5-amine]
11.2 nM | 0.6 nM | COc1cccc2c1nc(N)n1nc([C@H]3C[C@H](c4ncc(C(C)(C)N)nc4C)C3)nc21 [Ex-90, 2-((1r,3r)-3-(5-(2-aminopropan-2-yl)-3-methylpyrazin-2-yl)cyclobutyl)-7-methoxy-[1,2,4]triazolo[1,5-c]quinazolin-5-amine]
0.3 nM | 6.2 nM | COc1cc(F)cc2c1nc(N)n1nc(C3CC(c4ccc(C(C)(C)N)cn4)C3)nc21 (stereo not shown) [Ex-69, 2-{3-[5-(2-aminopropan-2-yl)pyridin-2-yl]cyclobutyl}-9-fluoro-7-methoxy[1,2,4]triazolo[1,5-c]quinazolin-5-amine]
2.2 nM | 2 nM | COc1cccc2c1nc(N)n1nc([C@H]3C[C@H](c4ccc(C(C)(C)N)cn4)C3)nc21 [Ex-68, 2-((1r,3r)-3-(5-(2-aminopropan-2-yl)pyridin-2-yl)cyclobutyl)-7-methoxy-[1,2,4]triazolo[1,5-c]quinazolin-5-amine]
10.2 nM | 10.9 nM | COc1cccc2c1nc(N)n1nc([C@H]3C[C@H](c4ccc(C(C)(C)O)cc4)C3)nc21 [Ex-43, 2-(4-((1r,3r)-3-(5-amino-7-methoxy-[1,2,4]triazolo[1,5-c]quinazolin-2-yl)cyclobutyl)phenyl)propan-2-ol]
2.1 nM | 4 nM | COc1cccc2c1nc(N)n1nc([C@H]3C[C@@](O)(c4ccc(C(C)(C)O)cn4)C3)nc21 [Ex-137, (1r,3r)-3-(5-amino-7-methoxy-[1,2,4]triazolo[1,5-c]quinazolin-2-yl)-1-(5-(2-hydroxypropan-2-yl)pyridin-2-yl)cyclobutan-1-ol]
1.8 nM | 4.3 nM | COc1cccc2c1nc(N)n1nc([C@H]3C[C@@H](c4ccc(C(C)(C)N)cn4)C3)nc21 [Ex-67, 2-((1s,3s)-3-(5-(2-aminopropan-2-yl)pyridin-2-yl)cyclobutyl)-7-methoxy-[1,2,4]triazolo[1,5-c]quinazolin-5-amine]
12.5 nM | 9.8 nM | COc1cccc2c1nc(N)n1nc([C@H]3C[C@@](N)(c4ccc(C(C)(C)O)cn4)C3)nc21 [Ex-138, 2-(6-((l1,3r)-1-amino-3-(5-amino-7-methoxy-[1,2,4]triazolo[1,5-c]quinazolin-2-yl)cyclobutyl)pyridin-3-yl)propan-2-ol]
69 nM | 18.3 nM | COc1cccc2c1nc(N)n1nc([C@H]3C[C@H](c4cccc(C(C)(C)O)c4)C3)nc21 [Ex-46, 2-{3-[trans-3-(5-amino-7-methoxy [1,2,4]triazolo [1,5-c]quinazolin-2-yl)cyclobutyl]phenyl} propan-2-ol]
10.6 nM | 9.8 nM | COc1cccc2c1nc(N)n1nc([C@H]3C[C@@H](c4cccc(C(C)(C)O)c4)C3)nc21 [Ex-47, 2-{3-[cis-3-(5-amino-7-methoxy [1,2,4]triazolo [1,5-c]quinazolin-2-yl)cyclobutyl]phenyl} propan-2-ol]
35.3 nM | 7.3 nM | COc1cccc2c1nc(N)n1nc([C@H]3C[C@@H](c4ccccc4)C3)nc21 [Ex-135, 7-methoxy-2-((1s,3s)-3-phenylcyclobutyl)-[1,2,4]triazolo[1,5-c]quinazolin-5-amine]
127 nM | 7 nM | COc1cccc2c1nc(N)n1nc(C3CC3Cc3ccc(F)cc3)nc21 (stereo not shown) [Ex-41]
